The source of these data is publication PMC11046913, “Activation of retinoic acid-related orphan receptor γ(t) by parabens and benzophenone UV-filters” (Toxicology, 2022).

In data set [1] the test system is IL-22 mRNA in EL4 T-cells over expressing human RORγt. In words: IL-22 mRNA expression (qRT-PCR) in EL4 cells overexpressing human RORγt. The class given is cell-based, murine. Particulars: 5 h, PMA/ionomycin-stimulated. On the procedure: (§1) EL4 cells were transfected with plasmid encoding the human variant of RORγt by electroporation and seeded into 12-well plates (500,000 cells and 1.6 μg plasmid in 2 mL cultivation medium per well). Transfection was performed using the NeonTM transfection system (Invitrogen, Carlsbad, CA, USA) as follows: 1.8 × 10^6 cells and 6 μg plasmid in 100 μL buffer R were exposed to one pulse (1080 V, 50 ms) utilizing a 100 μL gold tip. After incubation for 16 h, the cells were treated for 5 h with the indicated test compounds as well as PMA and ionomycin at a total concentration of 0.253 nM and 31.3 nM, respectively. Subsequently, cells were centrifuged at 200 g for 3 min and total RNA was isolated from the pellet with the RNeasy Mini Kit according to the manufacturer’s protocol (Qiagen, Venlo, Netherlands). Contamination with genomic DNA was prevented by on-column DNA digestion using DNase I (RNase-free, Qiagen). RNA (1 μg) was reverse transcribed to complementary DNA (cDNA) utilizing the Takara PrimeScript RT Reagent Kit, according to the manufacturer’s protocol (Takara Bio Inc., Kusatsu, Japan). Finally, quantitative polymerase chain reaction (qPCR) was performed using Kapa SYBER® Fast qPCR Master Mix (KAPA Biosystems, Wilmington, MA, USA) as described earlier ([Inderbinen et al., 2020]). The following primers were used: peptidylprolyl isomerase A (PPIA): forward 5’-[…]-3’, reverse 5’-[…]-3’; IL-17A: forward 5’-[…] CCAA-3’, reverse 5’-[…]-3’; IL-22: forward 5’-[…]-3’, reverse 5’-[…]-3’. Primer quality was verified by analysis of melting curves and inspection of the PCR product on an agarose gel (single band at the expected size of the amplified sequence). Resulting CT values were normalized to values of the endogenous control gene PPIA and compared to control according to the 2^−ΔΔCT method ([Schmittgen and Livak, 2008]).
On the technique in general: Quantitative PCR measures a nucleic acid by following its amplification.

Data set [2] relates to IL-17A mRNA in EL4 T-cells over expressing human RORγt. Description: IL-17A mRNA expression (qRT-PCR) in EL4 cells overexpressing human RORγt. Particulars: 5 h, PMA/ionomycin-stimulated. The class given is cell-based, murine. On the procedure:
as §1

Data set [3] has as its target T1, RORγ (Mus musculus, UniProt P51450).
T1 sequence (P51450 1-516): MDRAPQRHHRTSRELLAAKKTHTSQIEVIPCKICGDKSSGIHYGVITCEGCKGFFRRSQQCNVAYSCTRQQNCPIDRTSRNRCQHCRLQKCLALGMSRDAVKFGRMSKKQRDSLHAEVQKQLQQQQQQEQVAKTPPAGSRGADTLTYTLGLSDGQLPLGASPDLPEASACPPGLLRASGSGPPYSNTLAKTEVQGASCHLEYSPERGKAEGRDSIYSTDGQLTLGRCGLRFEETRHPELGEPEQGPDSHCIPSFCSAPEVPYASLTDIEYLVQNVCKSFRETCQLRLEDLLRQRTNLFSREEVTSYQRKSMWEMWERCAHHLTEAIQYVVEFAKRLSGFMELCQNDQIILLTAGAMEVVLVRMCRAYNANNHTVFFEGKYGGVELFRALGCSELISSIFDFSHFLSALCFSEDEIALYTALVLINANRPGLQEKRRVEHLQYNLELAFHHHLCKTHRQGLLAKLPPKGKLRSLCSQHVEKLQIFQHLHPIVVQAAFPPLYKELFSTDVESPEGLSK
The settings on record: in presence of 1.25 μM SR2211, test compound at different concentrations.
Method: The CHO RORγ Tet-on cell line used in this study is a well-established reporter gene system to assess RORγ agonists and antagonists. […] CHO RORγ Tet-on cells were seeded in 96-well plates at a density of 2000 cells/100 μL culture medium, followed by incubation overnight. Subsequently, the medium was renewed, and the respective test compound dissolved in dimethylsulfoxide (DMSO) was added to the wells using a HP D300 Digital Liquid Dispenser with T8 dispense heads (HP Inc., Palo Alto, CA, USA). […] Two hours later, RORγ expression was induced by adding doxycycline at 1 μM final concentration. All samples were adjusted to contain the same volume and concentration of DMSO. After 16 h of incubation, cells were washed with PBS, lysed with 20 μL Tropix lysis solution (Applied Biosystems, Foster City, CA, USA) containing 1 mM dithiothreitol and frozen at − 80 °C for at least 20 min. […] Measured values were normalized to values from control cells treated with DMSO vehicle control only and induced with doxycycline.
Cells were simultaneously exposed to SR2211 and a given test compound at different concentrations or vehicle control.

The target in data set [4] is T1, RORγ. In words: cell-based. Particulars: for activation at 1 µM: read-out: % increase in RORγ activity (mean ± SD), individual agonist at 1 μM; for activation at 2.5 µM: read-out: % increase in RORγ activity (mean ± SD), individual agonist at 2.5 μM; for RORγ agonistic activity (in words): screening at 10 μM; for fold induction at 10 µM: read-out: RORγ-dependent transactivation compared to the DMSO vehicle control. The class given is cell-based. On the procedure: Both cell lines were cultured under standard conditions (37 °C, 5% CO2).

The next data set relates to estrogenic activity. The settings on record: cited from earlier work.
Details of data set [5]: method as in CIR, 2008. Particulars: relatively long alkyl side chain; ref CIR, 2008; cited from earlier work.
The conditions of data set [6]: cited from earlier work.
On the set-up of data set [7]: method as in Benson et al., 2005; Fernandez et al., 2002. Particulars: human; ref Benson et al., 2005; Fernandez et al., 2002; cited from earlier work.
Setting [8] is: only at high micromolar concentrations, ref Charles and Darbre, 2009.

Where two headings read alike, the source gives them in different places.

Regarding `O=c1c(-c2ccc(O)cc2)coc2cc(O)cc(O)c12` [genistein, reference compound], in data set [1] (10 μM, vs vehicle control), the IL-22 transcription result was “significantly increased transcription”. Moreover, the IL-17A transcription entry in data set [2] (10 μM, vs vehicle control) is “efficient modulation”.

`COc1ccc(C(=O)c2ccc(C)cc2)c(O)c1` [Benzophenone-10, benzophenone-10]: the IL-22 transcription entry in data set [1] (10 μM, vs vehicle control) was “tended to increase”. Further, the IL-17A transcription result in data set [2] (10 μM, vs vehicle control) was “elevated expression”. Also, the “Reversal of the SR2211-mediated inhibition of RORγ transactivation” value on RORγ [3] was “significant increase”. Besides, on RORγ [4] (first screening, 10 μM), the “RORγ-dependent transactivation compared to the DMSO vehicle control” value is on record as “more than 1.5 fold”. Besides, on RORγ [4], the activation at 1 µM was determined as 15 ± 5%, the activation at 2.5 µM is 63 ± 4% and the “RORγ agonistic activity (in words)” value is listed as “agonistic activity”.

Take `O=C(OCc1ccccc1)c1ccc(O)cc1` [Benzylparaben, benzylparaben]: the IL-22 transcription entry in data set [1] (10 μM, vs vehicle control) is “tended to increase”. Also, the IL-17A transcription result in data set [2] (10 μM, vs vehicle control) is “a trend was detected”. In addition, the “Reversal of the SR2211-mediated inhibition of RORγ transactivation” value on RORγ [3] is listed as “significant increase”. For the same compound, on RORγ [4], the activation at 1 µM was found to be 13 ± 4%, the activation at 2.5 µM came out at 45 ± 2% and the fold induction at 10 µM is > 1.5.

For `Cc1ccc(OC(=O)c2ccccc2)cc1` [4-Methylphenylbenzoate], the IL-22 transcription result in data set [1] (10 μM, vs vehicle control) was “did not significantly enhance”. For the same compound, the IL-17A transcription entry in data set [2] (10 μM, vs vehicle control) is “did not significantly enhance”. The “Reversal of the SR2211-mediated inhibition of RORγ transactivation” value at RORγ [3] was “failed to do so”. Besides, on RORγ [4], the activation at 1 µM came to 6 ± 9% and the “RORγ agonistic activity (in words)” value is listed as “significant agonistic activity”.

With `CCCCOC(=O)c1ccc(O)cc1` [Butylparaben, butylparaben], at RORγ [4], the activation at 1 µM turned out to be 5 ± 4% and the fold induction at 10 µM is > 1.5.

In the case of `O=C(c1ccccc1)c1ccc(O)cc1O` [benzophenone-1], the “RORγ agonistic effect (in words, discussion)” value on RORγ [4] (micromolar concentrations) is reported as “only weak RORγ agonistic effect”.

As for `O=C(OCc1ccccc1)c1ccccc1` [Benzylbenzoate], in data set [1] (10 μM, vs vehicle control), the IL-22 transcription entry was “did not significantly enhance”. Besides, the IL-17A transcription result in data set [2] (10 μM, vs vehicle control) is recorded as “did not significantly enhance”. In the data set with estrogenic activity (setting [8]), the estrogenic activity result is on record as “Estrogenic activity”. Further, the “Reversal of the SR2211-mediated inhibition of RORγ transactivation” value on RORγ [3] was “restore the suppressed RORγ activity in a concentration-dependent manner”. Also, on RORγ [4], the activation at 1 µM turned out to be 16 ± 12% and the “RORγ agonistic activity (in words)” value is recorded as “significant agonistic activity”.

On to `O=C(c1ccc(O)cc1O)c1ccc(O)cc1O` [benzophenone-2], for which the “RORγ agonistic activity (in words)” value on RORγ [4] is “agonistic activity”.

Turning to `O=C(c1ccc(O)cc1)c1ccc(O)cc1O` [2,4,4’-trihydroxybenzophenone], the estrogenic activity result in the data set on estrogenic activity (ref Suzuki et al., 2005) is recorded as “weak estrogenic activity”. On RORγ [4], the “RORγ agonistic activity (in words)” value is given as “agonistic activity”.

Consider `COc1ccc(C(=O)c2ccc(OC)cc2O)c(O)c1` [Benzophenone-6, benzophenone-6], for which, at RORγ [4], the activation at 1 µM was -1 ± 5%, the fold induction at 10 µM was > 1.5 and the “RORγ agonistic activity (in words)” value is reported as “agonistic activity”.

As to `O=C(Oc1ccccc1)c1ccc(O)cc1` [Phenylparaben, phenylparaben], at RORγ [4], the activation at 1 µM was determined as 5 ± 2% and the fold induction at 10 µM was > 1.5.

For `CCCCCCCOC(=O)c1ccc(O)cc1` [Heptylparaben, heptylparaben], at RORγ [4], the activation at 1 µM was found to be 5 ± 5% and the fold induction at 10 µM was > 1.5.

In the case of `CCCCCCOC(=O)c1ccc(O)cc1` [Hexylparaben, hexylparaben], in data set [1] (10 μM, vs vehicle control), the IL-22 transcription result was “significantly increased transcription”. Besides, the IL-17A transcription entry in data set [2] (10 μM, vs vehicle control) is reported as “elevated expression”. In addition, the “Reversal of the SR2211-mediated inhibition of RORγ transactivation” value at RORγ [3] is given as “significant increase”. Also, on RORγ [4], the activation at 2.5 µM worked out at 83 ± 8% and the fold induction at 10 µM was > 1.5. In addition, in data set [5], the solubility result is recorded as “reduced solubility”.

For the compound `CCc1ccc(N(CC(C)C)S(=O)(=O)c2ccc(OCC3CCOCC3)c(CO)c2)cc1` [GSK2981278, reference compound], the IL-22 transcription entry in data set [1] (1 μM) is recorded as “efficient modulation”. Further, the IL-17A transcription result in data set [2] (1 μM) is “efficient modulation”.

On to `O=C(OCc1ccccc1)c1ccccc1O` [Benzylsalicylate], for which, in data set [1] (10 μM, vs vehicle control), the IL-22 transcription result is “did not significantly enhance”. In data set [2] (10 μM, vs vehicle control), the IL-17A transcription entry is listed as “did not significantly enhance”. Besides, the estrogenic activity entry in the data set on estrogenic activity (setting [8]) is listed as “Estrogenic activity”. The “Reversal of the SR2211-mediated inhibition of RORγ transactivation” value on RORγ [3] was “restore the suppressed RORγ activity in a concentration-dependent manner”. Further, at RORγ [4], the activation at 1 µM stood at 18 ± 3% and the “RORγ agonistic activity (in words)” value is given as “significant agonistic activity”.

As for `Cc1ccc(Sc2ccc(C(=O)c3ccccc3)cc2)cc1` [4-(4-methylphenylthio)benzophenone], on RORγ [4], the “RORγ agonistic activity (in words)” value was “agonistic activity”.

For `O=C(Nc1ccc(C(O)(C(F)(F)F)C(F)(F)F)cc1)c1ccccc1Cl` [SR0987, reference compound], the IL-22 transcription entry in data set [1] (10 μM, vs vehicle control) is given as “significantly increased transcription”. Further, the IL-17A transcription result in data set [2] (10 μM, vs vehicle control) is recorded as “efficient modulation”.

In the case of `COc1ccc(C(=O)c2ccccc2)c(O)c1` [benzophenone-3], the skin penetration entry in data set [6] (human skin, ref Benson et al., 2005, Fernandez et al., 2002) is recorded as “penetrate the human skin efficiently”. For the same compound, the “RORγ agonistic activity (in words)” value at RORγ [4] is listed as “agonistic activity”. In addition, in data set [7], the “concentration in breast milk” value is listed as 779.9 ng/g milk, the concentration in serum is 304 ng/mL and the concentration in urine is 300 ng/mL.

As to `O=C(c1ccc(O)cc1)c1ccc(O)cc1` [4,4’-dihydroxybenzophenone], the “RORγ agonistic activity (in words)” value at RORγ [4] is on record as “agonistic activity”.

With `COc1ccc(C(=O)CC(=O)c2ccc(C(C)(C)C)cc2)cc1` [avobenzone], in data set [6] (ref Simeoni et al., 2004, Weigmann et al., 2001), the skin penetration entry is on record as “limited skin penetration”.
